# According to US10870647B2, “Imidazopyridine derivative, method for preparing same, and pharmaceutical composition containing same as active ingredient for preventing or treating cancer” (DAEGU-GYEONGBUK MEDICAL INNOVATION FOUNDATION, priority 2016, dated 2020):
# Key:
# Test in all cases: Kinase selectivity, scanMAX Kinase assay panel (DiscoverX), % control at 1 uM
# Type in all cases: binding
# [1] = biological target: T1, scanMAX Kinase assay panel (Homo sapiens, UniProt O14578); details: CIT; 1 uM; read-out: Percent Control (%)
# T1 construct: purchased DiscoverX
# T1 sequence (O14578 whole entry): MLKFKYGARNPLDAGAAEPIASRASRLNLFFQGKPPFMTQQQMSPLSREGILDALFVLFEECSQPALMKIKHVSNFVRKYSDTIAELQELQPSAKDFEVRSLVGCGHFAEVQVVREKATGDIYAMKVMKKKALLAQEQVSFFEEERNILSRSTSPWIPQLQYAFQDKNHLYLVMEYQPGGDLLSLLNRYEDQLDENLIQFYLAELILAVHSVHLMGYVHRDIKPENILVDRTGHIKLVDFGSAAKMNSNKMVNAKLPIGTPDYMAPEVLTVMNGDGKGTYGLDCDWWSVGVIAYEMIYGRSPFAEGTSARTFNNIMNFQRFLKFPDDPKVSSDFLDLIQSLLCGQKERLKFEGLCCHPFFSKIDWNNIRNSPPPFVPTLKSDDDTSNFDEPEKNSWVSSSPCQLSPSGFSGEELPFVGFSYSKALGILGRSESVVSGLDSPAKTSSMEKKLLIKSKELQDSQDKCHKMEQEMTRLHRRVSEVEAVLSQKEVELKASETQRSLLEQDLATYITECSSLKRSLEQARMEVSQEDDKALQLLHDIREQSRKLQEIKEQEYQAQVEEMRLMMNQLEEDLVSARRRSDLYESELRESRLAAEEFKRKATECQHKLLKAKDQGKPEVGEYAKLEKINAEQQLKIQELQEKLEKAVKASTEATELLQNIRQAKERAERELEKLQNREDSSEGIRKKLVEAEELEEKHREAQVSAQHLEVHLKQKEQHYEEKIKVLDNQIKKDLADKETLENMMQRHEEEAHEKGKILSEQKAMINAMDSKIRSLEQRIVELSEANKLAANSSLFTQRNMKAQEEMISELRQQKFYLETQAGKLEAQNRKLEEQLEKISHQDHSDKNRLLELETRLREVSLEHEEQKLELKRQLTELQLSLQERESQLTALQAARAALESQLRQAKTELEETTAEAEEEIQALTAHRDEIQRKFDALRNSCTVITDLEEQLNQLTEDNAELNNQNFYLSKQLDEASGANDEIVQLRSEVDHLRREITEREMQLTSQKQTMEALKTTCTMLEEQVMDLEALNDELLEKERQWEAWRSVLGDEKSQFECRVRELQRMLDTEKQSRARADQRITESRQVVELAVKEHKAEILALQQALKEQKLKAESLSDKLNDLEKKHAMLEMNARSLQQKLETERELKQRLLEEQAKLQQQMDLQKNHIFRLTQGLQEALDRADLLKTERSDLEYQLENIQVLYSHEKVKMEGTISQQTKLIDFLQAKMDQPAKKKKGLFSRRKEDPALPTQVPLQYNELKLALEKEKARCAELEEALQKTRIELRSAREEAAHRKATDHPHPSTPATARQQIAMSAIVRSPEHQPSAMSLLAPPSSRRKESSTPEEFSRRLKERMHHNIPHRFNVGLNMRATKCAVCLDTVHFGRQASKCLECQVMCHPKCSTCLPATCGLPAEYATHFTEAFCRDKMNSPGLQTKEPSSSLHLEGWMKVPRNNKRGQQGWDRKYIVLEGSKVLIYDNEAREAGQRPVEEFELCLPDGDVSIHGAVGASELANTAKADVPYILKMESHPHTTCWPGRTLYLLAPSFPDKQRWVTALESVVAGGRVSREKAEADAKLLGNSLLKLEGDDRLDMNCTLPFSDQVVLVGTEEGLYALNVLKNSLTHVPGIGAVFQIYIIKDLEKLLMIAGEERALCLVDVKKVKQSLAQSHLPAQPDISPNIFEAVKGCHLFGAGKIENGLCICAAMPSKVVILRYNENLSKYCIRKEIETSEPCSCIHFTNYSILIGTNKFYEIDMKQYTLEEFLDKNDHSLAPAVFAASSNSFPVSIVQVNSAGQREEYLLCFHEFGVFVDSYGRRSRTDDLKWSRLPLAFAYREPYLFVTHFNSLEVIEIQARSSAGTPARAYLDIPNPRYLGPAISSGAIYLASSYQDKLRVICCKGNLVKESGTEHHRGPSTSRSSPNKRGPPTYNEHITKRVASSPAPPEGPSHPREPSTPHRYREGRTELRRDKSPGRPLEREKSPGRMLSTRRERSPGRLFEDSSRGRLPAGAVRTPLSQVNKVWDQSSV
# Procedure, shortened: (§1)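 1 uM cpd (DMSO) per kinase; % ctrl = [cpd − pos ctrl]/[neg ctrl − pos ctrl] × 100; hit if <35.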
# [2] = biological target: T2, scanMAX Kinase assay panel (Homo sapiens, UniProt O75116); details: ROCK2; 1 uM; read-out: Percent Control (%)
# T2 construct: purchased DiscoverX
# T2 sequence (O75116 whole entry): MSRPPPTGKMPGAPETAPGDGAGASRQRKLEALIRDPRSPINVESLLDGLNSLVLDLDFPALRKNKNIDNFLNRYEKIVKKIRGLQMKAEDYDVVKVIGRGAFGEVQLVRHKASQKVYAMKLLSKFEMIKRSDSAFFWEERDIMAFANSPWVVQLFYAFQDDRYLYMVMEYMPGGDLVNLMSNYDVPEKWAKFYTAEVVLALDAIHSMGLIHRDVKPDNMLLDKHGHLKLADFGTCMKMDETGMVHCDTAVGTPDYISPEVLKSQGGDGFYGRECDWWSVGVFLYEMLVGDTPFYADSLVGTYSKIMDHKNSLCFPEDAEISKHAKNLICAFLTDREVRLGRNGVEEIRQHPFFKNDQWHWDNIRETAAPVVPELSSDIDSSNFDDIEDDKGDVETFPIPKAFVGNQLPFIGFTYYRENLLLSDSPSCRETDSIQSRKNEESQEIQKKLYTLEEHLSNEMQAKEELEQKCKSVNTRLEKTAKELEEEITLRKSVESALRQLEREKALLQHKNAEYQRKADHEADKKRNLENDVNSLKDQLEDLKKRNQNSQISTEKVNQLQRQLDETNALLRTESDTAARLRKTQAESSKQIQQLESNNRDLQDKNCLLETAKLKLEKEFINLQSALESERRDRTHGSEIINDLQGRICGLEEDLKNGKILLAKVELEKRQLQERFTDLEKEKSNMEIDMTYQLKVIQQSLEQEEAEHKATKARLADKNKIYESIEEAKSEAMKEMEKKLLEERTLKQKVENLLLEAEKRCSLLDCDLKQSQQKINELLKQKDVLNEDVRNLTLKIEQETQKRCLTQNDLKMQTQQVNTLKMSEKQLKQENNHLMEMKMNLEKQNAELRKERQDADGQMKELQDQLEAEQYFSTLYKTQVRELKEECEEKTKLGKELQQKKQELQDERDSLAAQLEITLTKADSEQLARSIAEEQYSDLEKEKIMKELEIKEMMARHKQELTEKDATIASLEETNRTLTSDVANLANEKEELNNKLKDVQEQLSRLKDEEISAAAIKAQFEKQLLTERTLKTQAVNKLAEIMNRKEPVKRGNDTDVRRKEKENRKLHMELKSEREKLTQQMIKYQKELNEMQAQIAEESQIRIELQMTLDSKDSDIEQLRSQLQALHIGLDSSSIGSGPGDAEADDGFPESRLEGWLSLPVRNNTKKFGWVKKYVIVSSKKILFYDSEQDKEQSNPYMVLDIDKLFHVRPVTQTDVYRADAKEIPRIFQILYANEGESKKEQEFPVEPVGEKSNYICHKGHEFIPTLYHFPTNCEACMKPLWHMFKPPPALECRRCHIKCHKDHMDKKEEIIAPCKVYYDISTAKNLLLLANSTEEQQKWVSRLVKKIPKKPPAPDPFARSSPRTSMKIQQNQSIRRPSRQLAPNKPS
# Procedure, shortened: as §1
# [3] = biological target: T3, scanMAX Kinase assay panel (Homo sapiens, UniProt P11362); details: FGFR1; 1 uM; read-out: Percent Control (%)
# T3 construct: purchased DiscoverX
# Procedure, shortened: as §1
# [4] = biological target: T4, scanMAX Kinase assay panel (Homo sapiens, UniProt P20794); details: MAK; 1 uM; read-out: Percent Control (%)
# T4 construct: purchased DiscoverX
# T4 sequence (P20794 1-623): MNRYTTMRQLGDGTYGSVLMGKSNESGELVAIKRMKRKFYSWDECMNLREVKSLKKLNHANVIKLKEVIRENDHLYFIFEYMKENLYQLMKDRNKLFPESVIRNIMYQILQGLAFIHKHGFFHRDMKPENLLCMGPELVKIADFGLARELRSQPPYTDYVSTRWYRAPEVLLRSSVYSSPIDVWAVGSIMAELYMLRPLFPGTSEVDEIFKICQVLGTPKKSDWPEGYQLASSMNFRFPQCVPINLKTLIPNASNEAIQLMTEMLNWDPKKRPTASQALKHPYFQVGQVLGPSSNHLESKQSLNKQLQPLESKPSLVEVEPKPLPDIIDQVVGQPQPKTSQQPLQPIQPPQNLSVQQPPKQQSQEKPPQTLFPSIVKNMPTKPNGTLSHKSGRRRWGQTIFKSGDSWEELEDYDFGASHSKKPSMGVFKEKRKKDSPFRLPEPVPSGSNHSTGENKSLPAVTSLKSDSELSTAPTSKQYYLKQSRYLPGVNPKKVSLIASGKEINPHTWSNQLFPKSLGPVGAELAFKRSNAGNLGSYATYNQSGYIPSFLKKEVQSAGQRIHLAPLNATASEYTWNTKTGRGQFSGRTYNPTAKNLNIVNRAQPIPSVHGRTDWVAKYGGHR
# Procedure, shortened: as §1
# [5] = biological target: T5, scanMAX Kinase assay panel (Homo sapiens, UniProt P42681); details: TXK; 1 uM; read-out: Percent Control (%)
# T5 construct: purchased DiscoverX
# T5 sequence (P42681 1-527): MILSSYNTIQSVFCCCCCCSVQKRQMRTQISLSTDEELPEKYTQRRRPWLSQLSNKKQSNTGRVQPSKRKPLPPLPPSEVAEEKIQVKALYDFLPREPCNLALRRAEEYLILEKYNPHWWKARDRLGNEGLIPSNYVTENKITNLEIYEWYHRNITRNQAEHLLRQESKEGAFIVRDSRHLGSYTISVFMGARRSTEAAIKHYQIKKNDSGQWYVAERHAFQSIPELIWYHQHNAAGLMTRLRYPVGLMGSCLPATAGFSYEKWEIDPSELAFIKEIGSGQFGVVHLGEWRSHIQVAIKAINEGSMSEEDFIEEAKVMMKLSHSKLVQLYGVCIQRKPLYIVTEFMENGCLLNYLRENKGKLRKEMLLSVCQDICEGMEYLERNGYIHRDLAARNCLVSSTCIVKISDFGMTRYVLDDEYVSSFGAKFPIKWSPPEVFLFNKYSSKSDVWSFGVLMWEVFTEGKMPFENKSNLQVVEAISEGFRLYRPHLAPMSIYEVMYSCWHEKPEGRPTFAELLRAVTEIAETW
# Procedure, shortened: as §1
# [6] = biological target: T6, scanMAX Kinase assay panel (Homo sapiens, UniProt P49841); details: GSK3B; 1 uM; read-out: Percent Control (%)
# T6 construct: purchased DiscoverX
# Procedure, shortened: as §1
# [7] = biological target: T7, scanMAX Kinase assay panel (Homo sapiens, UniProt P80192); details: MLK1; 1 uM; read-out: Percent Control (%)
# T7 construct: purchased DiscoverX
# T7 sequence (P80192 whole entry): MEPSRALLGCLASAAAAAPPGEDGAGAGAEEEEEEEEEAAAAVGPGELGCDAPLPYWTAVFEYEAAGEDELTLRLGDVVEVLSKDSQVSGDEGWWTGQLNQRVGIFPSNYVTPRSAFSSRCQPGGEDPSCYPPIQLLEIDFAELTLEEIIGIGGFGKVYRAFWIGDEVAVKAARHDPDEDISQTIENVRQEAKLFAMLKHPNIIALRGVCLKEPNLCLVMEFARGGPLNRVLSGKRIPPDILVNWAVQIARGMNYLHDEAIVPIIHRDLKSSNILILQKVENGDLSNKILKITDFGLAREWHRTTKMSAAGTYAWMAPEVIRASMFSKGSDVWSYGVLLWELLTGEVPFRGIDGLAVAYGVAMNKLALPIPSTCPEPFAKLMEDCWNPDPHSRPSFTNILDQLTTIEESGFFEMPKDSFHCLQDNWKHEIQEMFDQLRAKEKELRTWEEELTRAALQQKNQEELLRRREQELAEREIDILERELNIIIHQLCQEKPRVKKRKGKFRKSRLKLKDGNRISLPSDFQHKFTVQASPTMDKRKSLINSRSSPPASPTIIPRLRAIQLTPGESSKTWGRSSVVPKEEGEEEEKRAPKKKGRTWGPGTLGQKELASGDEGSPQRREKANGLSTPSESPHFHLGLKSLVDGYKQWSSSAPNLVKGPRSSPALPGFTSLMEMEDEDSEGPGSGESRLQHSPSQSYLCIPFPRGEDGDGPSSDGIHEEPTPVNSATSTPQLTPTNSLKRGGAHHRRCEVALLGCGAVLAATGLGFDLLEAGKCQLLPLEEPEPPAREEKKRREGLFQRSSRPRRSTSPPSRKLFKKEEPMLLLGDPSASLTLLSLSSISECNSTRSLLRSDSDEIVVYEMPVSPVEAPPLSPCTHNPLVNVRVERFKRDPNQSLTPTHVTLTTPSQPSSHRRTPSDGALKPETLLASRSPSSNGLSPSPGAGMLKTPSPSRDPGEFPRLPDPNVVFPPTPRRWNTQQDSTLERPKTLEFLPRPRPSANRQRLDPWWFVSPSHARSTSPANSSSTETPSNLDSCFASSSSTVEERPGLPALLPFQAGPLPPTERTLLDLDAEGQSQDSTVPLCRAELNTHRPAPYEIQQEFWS
# Procedure, shortened: as §1
# [8] = biological target: T8, scanMAX Kinase assay panel (Homo sapiens, UniProt Q8N568); details: DCAMKL2; 1 uM; read-out: Percent Control (%)
# T8 construct: purchased DiscoverX
# Procedure, shortened: as §1
# [9] = biological target: T9, scanMAX Kinase assay panel (Homo sapiens, UniProt Q9BX84); details: TRPM6; 1 uM; read-out: Percent Control (%)
# T9 construct: purchased DiscoverX
# Procedure, shortened: as §1
# [10] = biological target: T10, scanMAX Kinase assay panel (Homo sapiens, UniProt Q9H093); details: SNARK; 1 uM; read-out: Percent Control (%)
# T10 construct: purchased DiscoverX
# T10 sequence (Q9H093 1-628): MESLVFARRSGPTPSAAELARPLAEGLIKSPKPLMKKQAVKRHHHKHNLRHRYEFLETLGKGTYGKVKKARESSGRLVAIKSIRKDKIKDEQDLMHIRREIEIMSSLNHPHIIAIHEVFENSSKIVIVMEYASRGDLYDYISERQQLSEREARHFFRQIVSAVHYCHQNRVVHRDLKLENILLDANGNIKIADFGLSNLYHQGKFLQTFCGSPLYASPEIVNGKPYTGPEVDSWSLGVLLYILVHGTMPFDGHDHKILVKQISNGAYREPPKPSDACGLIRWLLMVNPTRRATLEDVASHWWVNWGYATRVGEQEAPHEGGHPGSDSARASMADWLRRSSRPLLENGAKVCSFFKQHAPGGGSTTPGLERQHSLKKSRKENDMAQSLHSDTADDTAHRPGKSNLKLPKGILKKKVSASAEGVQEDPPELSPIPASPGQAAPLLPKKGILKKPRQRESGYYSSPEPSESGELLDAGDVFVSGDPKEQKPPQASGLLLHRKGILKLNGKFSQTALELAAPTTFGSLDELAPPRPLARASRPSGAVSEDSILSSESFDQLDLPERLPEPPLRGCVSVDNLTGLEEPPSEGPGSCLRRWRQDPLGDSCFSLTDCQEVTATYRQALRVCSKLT
# Procedure, shortened: as §1
# [11] = biological target: T11, scanMAX Kinase assay panel (Homo sapiens, UniProt Q9HBH9); details: MKNK2; 1 uM; read-out: Percent Control (%)
# T11 construct: purchased DiscoverX
# T11 sequence (Q9HBH9 whole entry): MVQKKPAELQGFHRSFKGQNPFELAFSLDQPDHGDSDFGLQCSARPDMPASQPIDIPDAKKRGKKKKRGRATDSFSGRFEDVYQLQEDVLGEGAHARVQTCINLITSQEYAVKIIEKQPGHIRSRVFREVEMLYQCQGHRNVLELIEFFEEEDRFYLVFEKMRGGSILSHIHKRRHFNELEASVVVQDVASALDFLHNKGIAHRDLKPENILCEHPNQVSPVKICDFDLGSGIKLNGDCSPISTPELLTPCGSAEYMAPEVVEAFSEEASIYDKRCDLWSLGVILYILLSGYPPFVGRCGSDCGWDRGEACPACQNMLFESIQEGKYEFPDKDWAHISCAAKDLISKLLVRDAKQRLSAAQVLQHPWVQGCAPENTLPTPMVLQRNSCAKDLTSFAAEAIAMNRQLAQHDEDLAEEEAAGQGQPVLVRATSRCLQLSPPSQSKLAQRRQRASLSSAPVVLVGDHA
# Procedure, shortened: as §1
# [12] = biological target: T12, scanMAX Kinase assay panel (Homo sapiens, UniProt Q9UQM7); details: CAMK2A; 1 uM; read-out: Percent Control (%)
# T12 construct: purchased DiscoverX
# Procedure, shortened: as §1
Compound,remaining binding at 1 µM [1] [%],remaining binding at 1 µM [2] [%],remaining binding at 1 µM [3] [%],remaining binding at 1 µM [4] [%],remaining binding at 1 µM [5] [%],remaining binding at 1 µM [6] [%],remaining binding at 1 µM [7] [%],remaining binding at 1 µM [8] [%],remaining binding at 1 µM [9] [%],remaining binding at 1 µM [10] [%],remaining binding at 1 µM [11] [%],remaining binding at 1 µM [12] [%]
"Cc1ccc(C(=O)Nc2ccc(CN3CCN(C)CC3)c(C(F)(F)F)c2)cc1C#Cc1cnc2c(Nc3cnn(C)c3)cccn12 [Example 1, 4-methyl-3-((8-((1-methyl-1H-pyrazol-4-yl)amino)imidazo[1,2-a]pyridin-3-yl)ethynyl)-N-(4-((4-methylpiperazin-1-yl)methyl)-3-(trifluoromethyl)phenyl)benzamide]",0,15,0,10,1,79,3,91,100,73,2,82
"Cc1cn(-c2cc(NC(=O)c3ccc(C)c(C#Cc4cnc5c(Nc6cnn(C)c6)cccn45)c3)cc(C(F)(F)F)c2)cn1 [Example 12, 4-methyl-N-(3-(4-methyl-1H-imidazol-1-yl)-5-(trifluoromethyl)phenyl)-3-((8-((1-methyl-1H-pyrazol-4-yl)amino)imidazo[1,2-a]pyridin-3-yl)ethynyl)benzamide]",0,100,6,81,3,85,35,78,87,100,78,96
Cc1ccc(NC(=O)C2(C(=O)Nc3ccc(F)cc3)CC2)cc1C#Cc1cnc2c(Nc3cnn(C(C)C)c3)cccn12 [Example 78],100,100,100,100,91,96,100,100,87,68,100,100
